{"source": "paper PMC4608773", "about": "“Elisidepsin Interacts Directly with Glycosylceramides in the Plasma Membrane of Tumor Cells to Induce Necrotic Cell Death” (PLoS ONE, 2015)", "key": {"HCT-116 cells [1]": {"test_system": "HCT-116 cells", "assay": "cells", "description": "(§1) Cells were seeded in 96-well microtiter plates and maintained at 37°C and 5% CO2 in drug-free medium before treatment with vehicle alone or elisidepsin at the concentrations and times indicated in the text. For cell survival quantification, a colorimetric assay using SRB was used. Briefly, after treatment, cells were washed twice with phosphate buffered saline (PBS), fixed for 25 min in 1% glutaraldehyde solution, rinsed twice with PBS, stained in 0.4% SRB-1% acetic acid solution for 30 min, rinsed several times with 1% acetic acid solution, and air-dried. […] Results are expressed as percentage of control cell survival and represent the mean of at least three independent experiments. IC50, half-maximal inhibitory concentration, was used as a reference value."}, "[2]": {"test_system": "HCT-116-Irv cells (elisidepsin-resistant subline)", "assay": "cells", "description": "B16 and GM95 cells were maintained in DMEM with the same supplements and conditions.\nas §1"}, "B16 cells": {"test_system": "B16 cells", "assay": "Cell viability assay (SRB colorimetric)", "assay_type": "cell-based, mouse", "conditions": "SRB assay; mean of three different experiments; read-out: B16 (IC50), cell growth half-maximal inhibitory concentration", "description": "as §1"}, "[3]": {"test_system": "GM95 cells (UGCG-deficient B16 mutant)", "assay": "Cell viability assay (SRB colorimetric)", "assay_type": "cell-based, mouse", "conditions": "negative values where GM95 is the more sensitive line", "description": "as §1"}, "GM95-UGCG cells": {"test_system": "GM95-UGCG cells", "conditions": "read-out: mean IC50, GM95-UGCG cells; 72 h treatment (Fig 4C); SRB; at least three experiments", "description": "as §1"}, "HCT-116 cells [4]": {"test_system": "HCT-116 cells", "assay": "Electrophysiological recordings of membrane conductance (whole-cell patch-clamp)", "assay_type": "cell-based, human", "conditions": "elisidepsin 1 μM, ramps -100 mV to +120 mV, 500 ms, n = 4", "description": "(§2) The effects of elisidepsin on membrane conductance were analyzed in HCT-116 and HCT-116-Irv cells as previously described. Experiments were performed in a small bath mounted on the stage of an inverted microscope (Nikon model TMS, Garden City, NY, USA) continuously perfused with the extracellular solution (Tyrode-glucose buffer). Ion currents were recorded at room temperature (20–22°C) using the whole-cell voltage-clamp configuration of the patch-clamp technique with an Axopatch 200B patch-clamp amplifier (Axon Instruments, Foster City, CA). Currents were filtered at 2 kHz (four-pole Bessel filter), sampled at 4 kHz. Data acquisition and command potentials were controlled by the CLAMPEX program of PCLAMP 9.2 software (Axon Instruments). Micropipettes were pulled from borosilicate glass capillary tubes (Narishige, GD-1, Tokyo, Japan) on a programmable horizontal puller (Sutter Instrument Co., San Rafael, CA, USA) and heat-polished with a microforge (Narishige). Pipette tip resistance averaged between 1 and 3 MΩ. The intracellular pipette solution contained (in mM): K-aspartate 80, KCl 50, phosphocreatine 3, KH2PO4 10, MgATP 3, HEPES-K 10, EGTA-K 5 and was adjusted to pH 7.25 with KOH. The external solution (Tyrode-glucose buffer) contained (in mM): NaCl 130, KCl 4, CaCl2 1.8, MgCl2 1, HEPES-Na 10, and glucose 10, and was adjusted to pH 7.40 with NaOH. Measurements were performed using the CLAMPFIT program of PCLAMP 9.2."}, "HCT-116-Irv cells": {"test_system": "HCT-116-Irv cells", "assay": "Electrophysiological recordings of membrane conductance (whole-cell patch-clamp)", "assay_type": "cell-based, human", "conditions": "elisidepsin 1 μM; ramps -100 mV to +120 mV, 500 ms", "description": "as §2"}, "[5]": {"assay": "Lipid overlay (dot-blot) assay with elisidepsin-biotin", "assay_type": "binding, human", "conditions": "elisidepsin-biotin:elisidepsin 1:1 and 1:15", "description": "Lipid extracts from cells were obtained according to the Bligh and Dyer method with slight modifications. Briefly, a cell pellet was resuspended in 1 mL of distilled water, then 3.75 mL of chloroform:methanol (1:2) was added and the suspension was mixed by vortexing two minutes; next, 1.25 mL of chloroform was added and vortexed one minute; last, 1.25 mL of NaCl 1 M was added to the suspension and vortexed one minute. The suspension was centrifuged and the bottom organic phase was collected. This solution was dried under a nitrogen stream and stored at -20°C. This extract was dissolved in a small volume of chloroform:methanol (2:1) and lipids were separated in a HPTLC (high performance thin layer chromatography) silica gel plate (Merck-Millipore, Darmstad, Germany) using a mobile phase of chloroform:methanol (8:2). Lipids were visualized by staining the plate with thioflavine S (sprayed with 10 μg mL^-1 in acetone:water (4:1) and visualized under UV light). Glycosylated lipids were visualized by orcinol staining (sprayed with orcinol 0.5% in sulphuric acid 0.5 M and developed with heat). […]\nInteraction of purified lipid fractions with elisidepsin was evaluated with an overlay assay. […] Elisidepsin-biotin interactions were detected by incubation with streptavidin-HRP and subsequent chemiluminescence."}}, "note": "Read-outs that look alike come from different tables or passages of the source.", "data": [{"smiles": "C/C=C1\\NC(=O)[C@H](Cc2ccccc2)NC(=O)[C@@H](C(C)C)NC(=O)[C@@H]([C@@H](C)CC)NC(=O)[C@H](NC(=O)[C@H](NC(=O)[C@H](CCCN)NC(=O)[C@H]2CCCN2C(=O)[C@H](NC(=O)[C@@H](NC(=O)[C@@H](NC(=O)[C@H](NC(=O)CC[C@@H](C)CC)C(C)C)[C@@H](C)O)C(C)C)C(C)C)[C@@H](C)CC)[C@@H](C)OC(=O)[C@H](C(C)C)NC1=O", "note": "[Elisidepsin]", "values": [{"measurement": "Sensitivity of HCT-116 cells to elisidepsin after pretreatment with UGCG inhibitor NB-DNJ", "setting": "HCT-116 cells [1]; pretreated 48 h with NB-DNJ 200 μM, elisidepsin 30 min incubation, SRB, three experiments", "value": "increase in cell resistance"}, {"measurement": "Sensitivity of HCT-116 cells to elisidepsin after pretreatment with UGCG inhibitor PDMP", "setting": "HCT-116 cells [1]; pretreated 72 h with PDMP 10 μM, elisidepsin 30 min incubation, SRB, three experiments", "value": "increase in cell resistance"}, {"measurement": "IC50", "setting": "HCT-116 cells [1]; read-out: HCT-116 (IC50), cell growth half-maximal inhibitory concentration, SRB assay, 96-well, mean of three different experiments, exposure time not given", "value": 5.5, "unit": "µM"}, {"measurement": "IC50", "setting": "HCT-116 cells [1]; read-out: IC50 after 30 min exposure, HCT-116, 30 min exposure, SRB, mean±SD of at least three experiments", "value": "7.7 ± 4.1", "unit": "µM"}, {"measurement": "RR (resistance ratio): fold change between IC50 values from HCT-116-Irv and HCT-116", "setting": "[2]; negative values where HCT-116-Irv is the more sensitive line", "value": 14.7}, {"measurement": "IC50", "setting": "[2]; read-out: HCT-116-Irv (IC50), cell growth half-maximal inhibitory concentration, SRB assay, 96-well, mean of three different experiments, exposure time not given", "value": 81, "unit": "µM"}, {"measurement": "IC50", "setting": "[2]; read-out: IC50 after 30 min exposure, HCT-116-Irv, 30 min exposure, SRB, at least three experiments", "value": "> 100", "unit": "µM"}, {"measurement": "IC50", "setting": "[2]; read-out: IC50 after 72 h exposure, HCT-116-Irv, 72 h exposure, SRB, mean±SD of at least three experiments", "value": "81.5 ± 0.8", "unit": "µM"}, {"measurement": "IC50", "setting": "B16 cells", "value": 7.9, "unit": "µM"}, {"measurement": "RR: fold change between IC50 values from GM95 and B16", "setting": "[3]", "value": 8.9}, {"measurement": "IC50", "setting": "GM95-UGCG cells", "value": 9, "unit": "µM"}, {"measurement": "Time constant of the increase of membrane conductance", "setting": "HCT-116 cells [4]; holding -80 mV, 20–22°C", "value": "107 ± 39", "unit": "s"}, {"measurement": "Latency between application and the beginning of the effects on membrane conductance", "setting": "HCT-116 cells [4]", "value": "460 ± 163", "unit": "s"}, {"measurement": "Effect on membrane conductance", "setting": "HCT-116-Irv cells", "value": "virtually no effect"}, {"measurement": "Competition with elisidepsin-biotin for lipid fraction 4", "setting": "[5]", "value": "could displace the biotinylated compound"}]}]}
